From paper PMC9469208 (Journal of Medicinal Chemistry, 2022)
Read-outs that look alike come from different tables or passages of the source.

Assays:
[1] = biological target: T1, mouse SV2A (Mus musculus, UniProt Q9JIS5); test: SV2A radioligand binding assay ([3H]brivaracetam); conditions: mouse brain cortex membranes
T1 construct: membrane preparations of mouse brain cortex; from tissue; host or cells: mouse brain cortex membranes
Method: (§1) The competitive radioligand-binding assay was essentially performed as previously described.[96],[97] The SV2A-containing preparations, either cell lysate of human SV2A-expressing CHO cells, or membrane preparations of mouse brain cortex, were incubated with the radioligand [^3H]brivaracetam (3 nM) in the absence or presence of test compound for 4 h. Incubation was performed in 500 μL of Tris-buffer (50 mM Tris–HCl, pH 7.4) containing 2 mM MgCl2 at 4 °C on a rocking shaker. […] The test compounds were dissolved in dimethyl sulfoxide (DMSO) and further diluted in DMSO. The DMSO concentration in all vials was adjusted to 2%. The separation of bound and unbound radioligand was performed via rapid vacuum filtration using GF/C glass fiber filters that had been presoaked in Tris-buffer containing 0.1% polyethyleneimine for 30 min. The filters were rapidly washed three times with about 1 mL of Tris-buffer each and subsequently placed in a drying oven at 50 °C for 90 min. The filters were then transferred to scintillation vials and 2.5 mL of scintillation cocktail (ProSafe FC+, Meridian Biotechnologies Ltd.) was added. After an incubation period of at least 9 h, radioactivity was measured in a scintillation counter. Results were analyzed by GraphPad Prism 7.0.

[2] = biological target: T2, human SV2A (Homo sapiens, UniProt Q7L0J3); test: SV2A radioligand binding assay ([3H]brivaracetam); conditions: [3H]brivaracetam 3 nM, human SV2A-expressing CHO cell lysate
T2 construct: expressed in transfected cells; host or cells: CHO cells
T2 sequence (Q7L0J3 whole entry): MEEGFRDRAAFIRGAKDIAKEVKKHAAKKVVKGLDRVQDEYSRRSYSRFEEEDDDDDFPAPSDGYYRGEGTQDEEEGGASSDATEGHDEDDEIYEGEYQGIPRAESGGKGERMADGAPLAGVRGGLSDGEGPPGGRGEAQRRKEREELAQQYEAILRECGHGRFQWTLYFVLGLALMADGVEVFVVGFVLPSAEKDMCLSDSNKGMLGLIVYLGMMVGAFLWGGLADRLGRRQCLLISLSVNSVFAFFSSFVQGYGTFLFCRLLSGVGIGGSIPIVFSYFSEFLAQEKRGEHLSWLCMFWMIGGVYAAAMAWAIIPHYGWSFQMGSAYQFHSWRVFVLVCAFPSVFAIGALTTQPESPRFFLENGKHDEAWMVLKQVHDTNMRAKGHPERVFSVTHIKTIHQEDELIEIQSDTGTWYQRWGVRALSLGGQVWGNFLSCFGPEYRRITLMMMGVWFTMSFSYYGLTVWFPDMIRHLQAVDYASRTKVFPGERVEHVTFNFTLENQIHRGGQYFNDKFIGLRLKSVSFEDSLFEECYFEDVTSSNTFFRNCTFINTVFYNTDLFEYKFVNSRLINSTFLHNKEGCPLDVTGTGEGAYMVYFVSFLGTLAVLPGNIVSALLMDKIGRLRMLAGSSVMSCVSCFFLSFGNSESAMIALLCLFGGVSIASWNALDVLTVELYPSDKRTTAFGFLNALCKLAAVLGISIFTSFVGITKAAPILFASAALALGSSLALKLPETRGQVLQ
Method: as §1

[3] = system: 6 Hz (32 mA) seizures in mice; conditions: mouse, in vivo; cited from earlier work
[4] = system: maximal electroshock seizures in mice; conditions: mouse, in vivo; cited from earlier work
[5] = system: PTZ-induced seizures in mice; conditions: mouse, in vivo; cited from earlier work
[6] = system: PTZ-induced kindling in mice; conditions: VPA 150 mg/kg i.p. (positive control)
[7] = biological target: hCav3.2 (Homo sapiens, UniProt O95180); test: cell-based
Sequence of hCav3.2 (O95180 whole entry): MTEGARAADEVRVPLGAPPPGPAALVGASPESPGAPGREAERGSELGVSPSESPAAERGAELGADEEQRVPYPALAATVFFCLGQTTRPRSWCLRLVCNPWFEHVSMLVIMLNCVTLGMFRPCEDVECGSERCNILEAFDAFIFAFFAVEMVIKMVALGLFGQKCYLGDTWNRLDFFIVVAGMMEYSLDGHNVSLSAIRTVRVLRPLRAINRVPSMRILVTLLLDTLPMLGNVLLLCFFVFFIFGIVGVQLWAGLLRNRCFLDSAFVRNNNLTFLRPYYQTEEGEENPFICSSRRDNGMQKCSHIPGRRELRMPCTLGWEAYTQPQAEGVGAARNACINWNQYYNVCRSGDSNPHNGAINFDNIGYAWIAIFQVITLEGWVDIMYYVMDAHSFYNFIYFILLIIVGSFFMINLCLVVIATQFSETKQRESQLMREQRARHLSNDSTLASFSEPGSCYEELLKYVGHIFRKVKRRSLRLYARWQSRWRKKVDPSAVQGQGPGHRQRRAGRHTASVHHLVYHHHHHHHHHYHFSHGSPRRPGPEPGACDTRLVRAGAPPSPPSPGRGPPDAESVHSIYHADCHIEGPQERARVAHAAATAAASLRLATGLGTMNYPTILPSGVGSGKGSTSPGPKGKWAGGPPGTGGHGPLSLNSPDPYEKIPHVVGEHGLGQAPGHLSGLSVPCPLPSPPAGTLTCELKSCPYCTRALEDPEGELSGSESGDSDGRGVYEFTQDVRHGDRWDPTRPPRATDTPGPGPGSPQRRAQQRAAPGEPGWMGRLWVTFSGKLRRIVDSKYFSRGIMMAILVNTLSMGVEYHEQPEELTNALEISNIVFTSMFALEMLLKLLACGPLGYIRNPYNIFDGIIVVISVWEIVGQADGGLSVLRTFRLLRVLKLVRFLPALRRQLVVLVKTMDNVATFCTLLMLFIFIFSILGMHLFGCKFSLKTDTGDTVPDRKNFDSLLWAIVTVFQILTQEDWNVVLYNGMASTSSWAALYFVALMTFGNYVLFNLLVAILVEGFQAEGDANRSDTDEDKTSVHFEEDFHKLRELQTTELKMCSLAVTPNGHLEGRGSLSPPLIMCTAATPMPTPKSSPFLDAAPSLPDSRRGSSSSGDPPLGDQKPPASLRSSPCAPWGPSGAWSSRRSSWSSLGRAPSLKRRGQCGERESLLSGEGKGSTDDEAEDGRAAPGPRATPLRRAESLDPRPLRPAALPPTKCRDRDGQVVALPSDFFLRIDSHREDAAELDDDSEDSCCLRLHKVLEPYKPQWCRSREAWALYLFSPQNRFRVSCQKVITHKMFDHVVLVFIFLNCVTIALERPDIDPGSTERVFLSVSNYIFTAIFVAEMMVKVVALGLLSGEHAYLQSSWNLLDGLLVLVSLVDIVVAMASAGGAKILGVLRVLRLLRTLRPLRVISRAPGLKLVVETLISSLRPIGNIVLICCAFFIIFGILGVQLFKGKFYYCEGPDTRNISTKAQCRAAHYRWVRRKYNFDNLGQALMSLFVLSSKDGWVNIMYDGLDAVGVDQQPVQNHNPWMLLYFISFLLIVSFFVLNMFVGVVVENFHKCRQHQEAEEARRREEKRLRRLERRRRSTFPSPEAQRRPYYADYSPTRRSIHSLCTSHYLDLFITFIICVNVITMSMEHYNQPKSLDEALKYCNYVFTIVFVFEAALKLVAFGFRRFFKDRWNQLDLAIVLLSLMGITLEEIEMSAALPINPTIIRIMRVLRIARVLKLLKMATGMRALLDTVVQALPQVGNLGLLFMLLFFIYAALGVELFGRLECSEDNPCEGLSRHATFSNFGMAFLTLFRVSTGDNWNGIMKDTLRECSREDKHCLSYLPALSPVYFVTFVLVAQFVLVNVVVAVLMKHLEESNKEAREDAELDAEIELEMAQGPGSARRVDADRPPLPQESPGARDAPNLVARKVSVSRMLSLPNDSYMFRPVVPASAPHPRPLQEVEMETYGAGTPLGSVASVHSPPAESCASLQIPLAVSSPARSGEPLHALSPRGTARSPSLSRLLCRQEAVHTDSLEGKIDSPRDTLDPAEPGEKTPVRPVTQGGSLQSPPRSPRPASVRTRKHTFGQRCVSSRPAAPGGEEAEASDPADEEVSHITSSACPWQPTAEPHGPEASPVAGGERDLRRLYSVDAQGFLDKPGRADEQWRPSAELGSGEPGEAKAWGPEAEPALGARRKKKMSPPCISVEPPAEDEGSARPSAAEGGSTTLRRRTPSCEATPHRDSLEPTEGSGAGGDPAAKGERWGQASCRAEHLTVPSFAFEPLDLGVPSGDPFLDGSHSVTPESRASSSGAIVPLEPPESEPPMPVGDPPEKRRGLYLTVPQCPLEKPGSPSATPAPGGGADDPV

[8] = system: NMDA receptors (tonic NMDA currents)
[9] = biological target: T3, GlyRA1 (Homo sapiens, UniProt P23415); type: cell-based
T3 construct: purchased Cerep (Eurofins), Poitiers, France; Promega P450-Glo; in-house COS-7 uptake assays
T3 sequence (P23415 29-457): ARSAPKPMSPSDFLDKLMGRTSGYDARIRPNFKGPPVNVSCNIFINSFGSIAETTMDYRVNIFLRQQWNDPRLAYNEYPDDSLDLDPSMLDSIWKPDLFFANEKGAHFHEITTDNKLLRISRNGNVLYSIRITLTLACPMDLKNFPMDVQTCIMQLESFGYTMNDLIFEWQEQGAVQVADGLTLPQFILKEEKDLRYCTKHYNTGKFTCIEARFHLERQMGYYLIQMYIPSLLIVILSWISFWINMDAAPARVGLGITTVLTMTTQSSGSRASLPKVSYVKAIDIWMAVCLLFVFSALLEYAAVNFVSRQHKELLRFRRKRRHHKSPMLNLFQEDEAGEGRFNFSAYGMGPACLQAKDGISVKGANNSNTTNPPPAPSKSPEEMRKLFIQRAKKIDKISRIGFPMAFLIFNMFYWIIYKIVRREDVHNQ

[10] = system: motor coordination of mice; conditions: mouse, in vivo, ip; cited from earlier work

T1 sequence (Q9JIS5 whole entry): as the sequence (Q7L0J3 whole entry) above, with S62A, T71A, E144D, A154T, G440S, S482A, I572V, M634L counted along it

C[C@@H](C(=O)NCc1ccccc1)N1C(=O)CCC1=O [(S)-7, (S)-N-Benzyl-2-(2,5-dioxopyrrolidin-1-yl)propanamide]
Binding to mouse SV2A [1]: no binding observed | Ki [2]: 255 ± 69 µM

COC[C@@H](NC(C)=O)C(=O)NCc1ccccc1 [LCS, lacosamide]
ED50 (6 Hz 32 mA) [3]: 5.3 (3.5–7.8) mg/kg | ED50 (MES) [4]: 9.2 (8.5–10.0) mg/kg

CCC1(C)CC(=O)NC1=O (centres unmarked) [ETX, ethosuximide]
ED50 (6 Hz 32 mA) [3]: >200 mg/kg | ED50 (scPTZ) [5]: 140.4 (115.8–170.2) mg/kg

CCCC(CCC)C(=O)O [VPA, valproic acid]
effect on kindling development [6]: suppressed kindling development | ED50 (6 Hz 32 mA) [3]: 130.6 (117.6–145.2) mg/kg | ED50 (scPTZ) [5]: 239.4 (209.2–274.1) mg/kg

COCC(=O)O[C@]1(CCN(C)CCCc2nc3ccccc3[nH]2)CCc2cc(F)ccc2[C@@H]1C(C)C [Mibefradil, reference compound]
inhibition at 30 µM ([7]; read-out: hCav3.2 % Inhibition, Mean): 95.5% | inhibition at 30 µM ([7]; read-out: hCav3.2 % Inhibition, n1): 96.1% | inhibition at 30 µM ([7]; read-out: hCav3.2 % Inhibition, n2): 94.8%

NC(CCCP(=O)(O)O)C(=O)O (centres unmarked) [AP-5]
effect on tonic NMDA currents [8]: fully inhibited

NCC(=O)O [Glycine, reference compound]
GlyRA1 agonist, % Control, Mean [9]: 89.99% | GlyRA1 agonist, % Control, n1 [9]: 92.59% | GlyRA1 agonist, % Control, n2 [9]: 87.38%

CC[C@@H](C(N)=O)N1CCCC1=O [LEV, levetiracetam]
ED50 (MES) [4]: >500 mg/kg

C=C(C)[C@@H]1CCC(C)=C[C@H]1c1c(O)cc(CCCCC)cc1O [CBD, cannabidiol]
ED50 (scPTZ) [5]: 120 (98.5–146) mg/kg | ED50 (MES) [4]: 80 (65.5–96.0) mg/kg

CC(C(=O)NCc1ccccc1F)N1C(=O)CCC1=O (centres unmarked) [II]
TD50 (rotarod) [10]: 300.9 (256.7–352.6) mg/kg
